Experimental data from patent US20090264382A1, “Methods for Treating Hematopoietic Neoplasms” (priority 2007, published 2009).
One block for each compound: values may come before it. Where a SMILES comes first, the peptide text is derived from it. The star is where a group is joined. Cbz = O=C(OCc1ccccc1)*; CH2F = FC*

Columns and labels:
Format in all cases: cell-based, human
HL60 cells = experiment: Reversal of CA4P-induced apoptosis by caspase inhibitors and ROS scavenger, Annexin V/PI
Protocol: Leukemic cells were treated with or without CA4P for 48 hours in presence of caspase inhibitor Q-VD and the percentage of apoptotic leukemic cells was determined by Annexin V and propidium iodide staining using flow cytometry. Percentage of alive Annexin V(−)/PI(−) cells was plotted.
HL-60 cells were treated with or without CA4P for 48 hours in presence of another ROS scavenger, deferoxamine (DFX), and caspase inhibitor Q-VD and the percentage of apoptotic leukemic cells was determined by Annexin V and propidium iodide staining using flow cytometry.

caspase-3 = experiment: CA4P-induced caspase-3 activation
leukemic cells = experiment: Intracellular ROS detection with H2DCFDA
Protocol: Intracellular ROS were detected as previously described (Krejsa & Schieven, Methods Mol Biol 99:35-47 (2000)). Briefly, leukemic cells were loaded with 2 μM H2DCFDA (Molecular Probes) in assay buffer (RPMI with 10 mM HEPES) for 30 min. at 37° C. and mean fluorescent intensity was measured by flow cytometry. Results are shown from triplicate measurements (±SEM) and are representative of three independent experiments (*p<0.05 as compared with untreated cells; n=3).

[1] = tested on: leukemic cells (HL60, R81, U937, KG1a, THP-1); experiment: Protection from CA4P-mediated cell death by ascorbic acid, trypan blue exclusion; settings: CA4P 5 or 10 nM, 48 hours
Protocol: Leukemic cells were treated with 5 nM (HL60, R81, U937) or 10 nM (KG1a, THP-1) for 48 hours with the ascorbic acid concentrations indicated and viable cells determined by trypan blue exclusion. Results of three experiments in triplicate are expressed as percentage of viable cells compared to control±SEM (*p<0.05 as compared with CA4P-untreated cells; n=3).

KG1a leukemic cells = experiment: Release of nuclear HMG1 protein into supernatant (necrosis marker), Western blot; settings: 24 hours, CA4P 20 mM, staurosporine 100 μM as printed
Protocol: Nonetheless, to rule out the possibility that CA4P may trigger necrotic cell death in subsets of the leukemic cells, the release of nuclear HMG1 protein into the culture supernatant, which has been described as a sensitive and highly specific marker for necrotic cell death (Scaffidi, et al. 2002. Nature 418, 191-5), was quantified. For detection of HMG1 protein, KG1a leukemic cells (1×106 in 2 ml X-vivo/5% FBS) were incubated with 100 μM staurosporine to induce apoptosis, freeze-thawed three times to induce necrosis, or treated with 20 mM CA4P for 24 hours. Cells were spun down, pelleted and the supernatant subjected to Western blot for HMG135.

Structure (SMILES): CC(=O)N(O)CCCCCNC(=O)CCC(=O)N(O)CCCCCNC(=O)CCC(=O)N(O)CCCCCN [DFX, deferoxamine]
inhibition of CA4P-induced cell death (HL60 cells; HL60, DFX together with caspase inhibitor Q-VD, 48 hours): up to 71%

CA4P-induced caspase-3 activation (caspase-3): blocked
Structure (SMILES): CC(C)[C@H](NC(=O)c1ccc2ccccc2n1)C(=O)N[C@@H](CC(=O)O)C(=O)COc1c(F)cccc1F [Q-VD, Q-VD-OPh]
CA4P induced apoptosis blocked (HL60 cells; HL60 cells, 48 hours, Annexin V/PI): 33%

CA4P-induced caspase-3 activation (caspase-3): blocked
Structure (SMILES): COC(=O)C[C@H](NC(=O)[C@H](C)NC(=O)[C@@H](NC(=O)OCc1ccccc1)C(C)C)C(=O)CF [Z-VAD-fmk] (Cbz-Val-Ala-Asp(OMe)-CH2F)
effect on CA4P-induced apoptosis (HL60 cells; data not shown): no effect

Structure (SMILES): O=C1O[C@H]([C@@H](O)CO)C(O)=C1O [ascorbic acid, reference compound]
effect on CA4P-induced ROS accumulation (leukemic cells): reversal of ROS accumulation
effect of co-incubation on CA4P-mediated cell death [1]: partial decrease in CA4P-mediated cell death

Structure (SMILES): CN[C@@H]1C[C@H]2O[C@@](C)([C@@H]1OC)n1c3ccccc3c3c4c(c5c6ccccc6n2c5c31)C(=O)NC4 [staurosporine, reference compound]
release of nuclear HMG1 protein into the supernatant (KG1a leukemic cells): not
